{"source": "paper PMC7281206", "about": "“Cysteine Cathepsins Inhibition Affects Their Expression and Human Renal Cancer Cell Phenotype” (Cancers, 2020)", "format_in_all_cases": "cell-based, human", "key": {"LAMP-1 in 769-P cells": {"tested_on": "LAMP-1 in 769-P cells", "assay": "LAMP-1 expression (confocal microscopy), 769-P", "conditions": "20 μM", "protocol": "Figure 7 Effect of the peptides on LAMP-1 protein expression: (a) Western blotting analysis of LAMP-1 after treatment with PLVE and VLPE (20 μM) for 24, 48, and 72 h in 769-P cells. (b) Confocal microscopy evaluation of LAMP-1 expression after 48 and 72 h of treatment with PLVE and VLPE (20 μM) in 769-P cells. (c) Western blotting analysis of LAMP-1 after treatment with PLVE and VLPE (20 μM) for 24, 48, and 72 h in A498 cells. (d) Confocal microscopy evaluation of LAMP-1 expression after 48 and 72 h of treatment with PLVE and VLPE (20 μM) in A498 cells. Data are represented as mean ± SD of at least three replicates. Significance was calculated through one-way ANOVA followed by Dunnet’s test. * = p < 0.05, ** = p < 0.01, *** = p < 0.001. The cells were treated for 48 and 72 h, then were fixed in 4% PFA/PBS for 15 min and permeabilized in 0.25% Triton®X-100 for 10 min. After blocking the non-specific sites in 2% BSA/PBS-T, the immunofluorescence was performed overnight with primary antibody anti-LAMP-1 (1:100, Abcam, Eugene, OR, USA) incubation, followed by incubation with the appropriate fluorophore-labeled secondary antibody Donkey anti-Rabbit IgG (H+L) ReadyProbes™, Alexa Fluor 488 (1:500; ThermoFisher, USA). The cells were then counterstained with nuclear dye DAPI and visualized under a fluorescent and/or confocal microscope (Olympus BX51, Shinjuku, Tokyo, Japan, and AxioObserver Z1, Zeiss, Oberkochen, Germany) using oil-immersion lenses."}, "[1]": {"tested_on": "A498 cells (proteolytic activity)", "assay": "Cell proteolytic activity towards Ac-PLVQ-AMC, A498", "conditions": "30 min peptide, then 10 min Ac-PLVQ-AMC; fluorescence microscopy and fluorimetric analysis", "protocol": "To evaluate the inhibitory properties of the peptides directly on the human renal cancer cells, we firstly assessed the impact of Ac-PLVE-FMK and Ac-VLPE-FMK on the cell viability of 769-P and A498 cells to determine the working concentrations for further experiments. […] Further experiments were performed using a concentration of 20 μM. To understand if the peptides could affect the activity of caspase proteases, we tested their effect on cell viability in combination with the chemotherapeutic paclitaxel (PXT) in both the cell lines. […] Next, we evaluated the effect of the peptides on renal cancer cell proteolytic activity against the fluorogenic probe Ac-PLVQ-AMC. In this case, 769-p and A498 cells were treated for 30 min with Ac-PLVE-FMK or Ac-VLPE-FMK and were then exposed for 10 min to the substrate Ac-PLVQ-AMC prior fluorescence microscopy analysis (Figure 3c,d).\nFigure 3 The effect of the peptide inhibitors on human 769-P and A498 renal cancer cell proliferation and proteolytic activity. […] Cell proliferation was measured after 24, 48, and 72 h via MTT (3-(4,5-dimethylthiazol-2-yl)-2,5-diphenyltetrazolium bromide) assay. […] (c) Fluorescence microscopy evaluation and quantification of the cell proteolytic activity in 769-P and (d) A498 cells towards the fluorogenic substrate Ac-PLVQ-AMC in the absence or presence of Ac-PLVE-FMK and Ac-VLPE-FMK. […]"}, "[2]": {"tested_on": "A498 cells (endolysosomal compartment)", "assay": "Neutral red assay (endolysosomal integrity), A498", "conditions": "2.5–250 μM; 48 h", "protocol": "Figure S6. The effect of the peptide inhibitors on human 769‐P and A498 renal cancer cell on\nlysosomes integrity. (a) 769‐P and (b) A498 cells were treated with increasing doses of Ac‐PLVE‐FMK\n(red bars) and Ac‐VLPE‐FMK (blue bars) (2.5–250 μM). NR uptake was measured after 24, 48, and 72\nh via MTT assay. (c) LysoTracker red evaluation in 769‐P and (d) A498 cells after 24, 48, and 72 h with\nthe inhibitors (20 μM). Data represent the mean (± S.D.) of at least three independent experiments,\neach performed in triplicate."}, "A498 cells": {"tested_on": "A498 cells", "assay": "Cell viability/proliferation (MTT), A498", "conditions": "2.5–250 μM; for Cell viability: 72 h; for Effect on cell proliferation: within 48 h", "protocol": "Figure 3 The effect of the peptide inhibitors on human 769-P and A498 renal cancer cell proliferation and proteolytic activity. (a) 769-P and (b) A498 cells were treated with increasing doses of Ac-PLVE-FMK (red bars) and Ac-VLPE-FMK (blue bars) (2.5–250 μM). Cell proliferation was measured after 24, 48, and 72 h via MTT (3-(4,5-dimethylthiazol-2-yl)-2,5-diphenyltetrazolium bromide) assay. Data represent the mean (±S.D.) of at least three independent experiments, each performed in triplicate. (c) Fluorescence microscopy evaluation and quantification of the cell proteolytic activity in 769-P and (d) A498 cells towards the fluorogenic substrate Ac-PLVQ-AMC in the absence or presence of Ac-PLVE-FMK and Ac-VLPE-FMK. The cells were seeded in a 96-well plate and after exposure to the peptides for 30 min prior incubation with the fluorescent substrate Ac-PLVQ-AMC for 10 min. Data are expressed as mean (±S.D.), and significance was calculated through one-way ANOVA followed by Dunnet’s test. * = p < 0.05, ** = p < 0.01, *** = p < 0.001.\nThe human renal cancer cell line lines […], A498 were obtained from Dr. Vadim Pokrovsky (purchased from American Type Culture Collection). The cells were cultured in RPMI 1640, supplemented with 10% fetal bovine serum and 1% mixture of antibiotics penicillin-streptomycin (all from Gibco, Waltham, MA, USA) at 5% CO2 and 37 °C in a humidified chamber. Cells were grown to confluence and harvested by trypsinization, using a 0.25 mg/mL trypsin/EDTA solution (ThermoFisher, Carlsbad, CA, USA) and resuspended in the fresh culture medium. Viable cells were enumerated on the Countess II FL Automated Cell Counter (ThermoFisher, Waltham, MA, USA), following Trypan Blue staining. The cell lines were tested for mycoplasma contamination regularly, using the Molecular Probes™ MycoFluor Mycoplasma Detection Kit (ThermoFisher, Waltham, MA, USA).\nThe cell number was evaluated by counting viable cells using the MTT (3-(4,5-dimethylthiazol-2-yl)-2,5-diphenyltetrazolium bromide) colorimetric assay. A total of 2 × 10^4 cells/well were seeded on independent 96-well plates for each time point (0, 24, 48, and 72 h), with five replicates and treated with two inhibitors (2.5–250 μM). Then, 10 µL of the MTT reagent was added to each well, and cells were incubated for another 5 h. Next, the absorbance value was measured using a CLARIOstar® Plus plate reader (BMG Labtech, Ortenberg, Germany) at 490 nm. Triplicate wells were assayed, and S.D.s were determined."}}, "note": "*: point of attachment. CH2F = FC*"}
{"substance": "Ac-PLVE-CH2F [Ac-PLVE-FMK]", "values": [{"measurement": "LAMP-1 expression (confocal)", "setting": "LAMP-1 in 769-P cells; 48 h", "result": "increased LAMP-1 expression"}, {"measurement": "LAMP-1 expression (confocal)", "setting": "LAMP-1 in 769-P cells; 72 h", "result": "the content of LAMP-1 decreased towards control levels"}, {"measurement": "Inhibition of probe degradation (cell proteolytic activity)", "setting": "[1]", "result": "significantly inhibited the probe degradation"}, {"measurement": "Neutral red uptake", "setting": "[2]", "result": "decreasing"}, {"measurement": "Cell viability", "setting": "A498 cells", "result": "cell viability increased, reaching values not significantly different from the control cells"}, {"measurement": "Effect on cell proliferation", "setting": "A498 cells", "result": "cytostatic properties on both cell lines only within 48 h of treatment"}]}
{"substance": "Ac-VLPE-CH2F [Ac-VLPE-FMK]", "values": [{"measurement": "LAMP-1 expression (confocal)", "setting": "LAMP-1 in 769-P cells; 48 h", "result": "increased LAMP-1 expression"}, {"measurement": "LAMP-1 expression (confocal)", "setting": "LAMP-1 in 769-P cells; 72 h", "result": "the content of LAMP-1 decreased towards control levels"}, {"measurement": "Inhibition of probe degradation (cell proteolytic activity)", "setting": "[1]", "result": "significantly inhibited the probe degradation"}, {"measurement": "Neutral red uptake", "setting": "[2]", "result": "decreasing"}, {"measurement": "Cell viability", "setting": "A498 cells", "result": "cell viability increased, reaching values not significantly different from the control cells"}, {"measurement": "Effect on cell proliferation", "setting": "A498 cells", "result": "cytostatic properties on both cell lines only within 48 h of treatment"}]}
